Results taken from publication PMC9570088, “Phytochemicals with Chemopreventive Activity Obtained from the Thai Medicinal Plant Mammea siamensis (Miq.) T. Anders.: Isolation and Structure Determination of New Prenylcoumarins with Inhibitory Activity against Aromatase” (International Journal of Molecular Sciences, 2022).
“Also recorded” adds a separate entry of the source.

Assays:
[1] = biological target: T1, human recombinant aromatase (Homo sapiens, UniProt P11511); assay: Inhibitory effects against human recombinant aromatase (DBF fluorescence assay); assay type: biochemical; conditions: substrate DBF; mean, N = 3
T1 construct: purchased BD Biosciences (Heidelberg, Germany)
T1 sequence (P11511 1-503): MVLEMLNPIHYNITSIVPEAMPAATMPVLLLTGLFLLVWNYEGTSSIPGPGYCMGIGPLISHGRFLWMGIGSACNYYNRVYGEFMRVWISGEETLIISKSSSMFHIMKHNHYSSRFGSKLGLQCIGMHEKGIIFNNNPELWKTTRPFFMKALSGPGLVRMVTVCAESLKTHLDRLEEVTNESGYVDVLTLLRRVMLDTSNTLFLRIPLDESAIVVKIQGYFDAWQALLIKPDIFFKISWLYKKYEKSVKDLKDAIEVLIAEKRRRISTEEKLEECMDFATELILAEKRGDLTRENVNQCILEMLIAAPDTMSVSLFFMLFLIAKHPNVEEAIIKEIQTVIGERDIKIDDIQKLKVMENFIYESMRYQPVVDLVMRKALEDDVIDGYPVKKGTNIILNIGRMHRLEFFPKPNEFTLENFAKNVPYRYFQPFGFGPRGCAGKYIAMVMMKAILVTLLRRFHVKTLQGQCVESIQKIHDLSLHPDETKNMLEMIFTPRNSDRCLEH
Procedure: Dibenzylfluorescein (DBF) and human CYP19 + P450 reductase SUPERSOMES (human recombinant aromatase) were purchased from BD Biosciences (Heidelberg, Germany) and testosterone from Tokyo Chemical Industry Co., Ltd. (Tokyo, Japan). The other chemicals used in this study were purchased from Wako Pure Chemical Industries, Co., Ltd. (Osaka, Japan).
The experiments were performed according to a previously described method. Briefly, a test sample was dissolved in dimethyl sulfoxide (DMSO), and the solution was diluted with potassium phosphate buffer (50 mM, pH 7.4) containing MgCl2 (0.5 mM) to obtain the test sample solution (concentration of DMSO: 2%). An enzyme/substrate solution in the buffer (20 µL, 1.6 µM DBF, 8 nM human recombinant aromatase) and the test sample solution (20 µL) were mixed in a 96-well half-area black microplate (Greiner Bio-One, Frickenhausen, Germany) at 37 °C for 10 min. The enzymatic reaction was initiated by adding NADPH solution (40 µL, 500 µM) at 37 °C for 30 min. After 30 min of incubation, NaOH (30 µL, 2 mM) was added, and the reaction mixture was incubated at 37 °C for 2 h to induce fluorescent signals (final DMSO concentration, 0.5%; aromatase, 2 nM; and NADPH, 250 µM). Fluorescence was measured using a fluorescence microplate reader (SH-9000, CORONA […] Co., Ltd., Ibaraki, Japan) at an excitation wavelength of 435 nm and emission wavelength of 535 nm. Experiments were performed in triplicate, and the IC50 values were determined graphically.

[2] = biological target: T1, human recombinant aromatase; assay: Kinetic analysis of inhibitory activity against human recombinant aromatase using Lineweaver-Burk plots (testosterone substrate, estradiol EIA); assay type: biochemical; conditions: for mode of inhibition of aromatase: Lineweaver–Burk plots; for Ki: testosterone 0.4–4 µM as substrate, secondary plot of Lineweaver–Burk, N = 3
From the text: In the assay system, we fixed the enzyme concentration, changed the substrate concentration, and obtained the kinetic parameters of the enzyme-catalyzed reaction using Lineweaver–Burk double reciprocal plot 1/[V] vs. 1/[S]. The inhibition constant Ki indicates the potency of an inhibitor and equals the concentration required to produce half-maximal inhibition. The Ki value was obtained from the intersection of the secondary plot with the x-axis (apparent Km/Vmax vs. inhibitor).
Experiments were performed using a previously described protocol, modified by using various concentrations of testosterone (0.4–4 µM) as substrates instead of DBF and the plate was heated at 37 °C for 15 min. After the reaction, the enzyme was inactivated by heating in a boiling water bath for 2 min. An estradiol EIA kit (Oxford Biomedical Research, Inc., Oxford, MI, USA) was used to develop an estradiol standard curve to determine the concentration of estradiol produced and to correlate the concentration of estradiol with the reaction velocity. The mode of inhibition was analyzed using the Lineweaver–Burk plot of the inverse of the reaction velocity of estradiol plotted on the vertical axis and the inverse of the final concentration of the substrate on the horizontal axis, with and without the test substance (Figure S27).

IC50 [1] [µM] | Ki [2] [µM] | SMILES | mode of inhibition of aromatase [2]
12 | 2.6 | C=C(C)c1cc2c(o1)c(C(=O)CCC)c(O)c1c(-c3ccccc3)cc(=O)oc12 [compound 4, mammeasin N] | competitive inhibition; also recorded: competitive inhibitors
9.3 | 14.7 | CCCC(=O)c1c(O)c2c(c3c([C@@H](O)CC)cc(=O)oc13)OC(C)(CCC=C(C)C)C=C2 (stereo partly shown) [compound 23, Kayaessamin I] | –
9.2 | 4.3 | CC(C)CC(=O)c1c2c(c3oc(=O)cc(-c4ccccc4)c3c1O)CC(C(C)(C)O)O2 (stereo not shown) [compound 39, Mammea A/AA cyclo F] | –
7.6 | 3.4 | CCCC(=O)c1c(O)c2c(c3c(CCC)cc(=O)oc13)OC(C)(C)C=C2 [compound 1, mammeasin K] | competitively inhibit; also recorded: competitive inhibition; also recorded: competitive inhibitors
